Measurements as given in US7649016B2, “Antitumor medicine” (Nihon Starch Co., Ltd., priority 2003, dated 2010).

Assays:
[1] = system: integrin (THP-1 cell adhesion); test: Number of adhered cells after phorbol ester (PMA) stimulation, function of integrin; assay type: cell-based, human; conditions: THP-1, 12.3 mM, one hour
Method: A 1,5-D-anhydrofructose solution (prepared by dissolving 1,5-D-anhydrofructose in DMSO) was added to the THP-1 cell culture medium, and the resulting medium was then stimulated by phorbol ester (PMA; phorbol myristate acetate). After the medium was cultured at 37° C. and a CO2 concentration of 5% for one hour, adhered cells were stained with a Giemsa staining method.
It is known that when leukemia cell lines are stimulated by phorbol ester (PMA), activation of adhesion molecule integrin is observed, and as a result, production of active oxygen, enhancement of cell adhesion and cell infiltration are induced as cell phenomena. Thus, THP-1 cell lines were cultured in the presence of 1,5-D-anhydrofructose, and the function of integrin was evaluated by use of the number of adherent cells after stimulation of the lines by phorbol ester as an index.

[2] = system: B16 melanoma cells in C57 BL/6 mice; test: Cancerous peritonitis model, survival of mice with B16 melanoma cells in the abdominal cavity; assay type: in vivo, mouse
Method: B16 melanoma cells (5×10^6 cells) were disseminated in the abdominal cavities of C57 BL/6 mice, PBS (phosphate buffer) and an ascopyrone P solution were then administered (dosage: 200 mg/kg) into the abdominal cavities every day from the 15th day, and the survival rates were examined (cancerous peritonitis model). It was confirmed that, in this experimental system, when the B16 melanoma cells were disseminated in the abdominal cavities of the mice in advance, the mice died from the 14th day or later when nothing or PBS was applied. The results of examining the life extending effect of ascopyrone P on terminal cancer models by use of the present experimental system are shown in FIG. 8. […] This indicates the antitumor effect in vivo of ascopyrone P.
As in Example 1, B16 melanoma cells (5×10^6 cells) were disseminated in the abdominal cavities of C57 BL/6 mice, and PBS and 1,5-D-anhydrofructose were administered (dosage: 200 mg/kg) into the abdominal cavities every day from the 2nd day. The average survival days after the tumor cells were disseminated were 19 days for those given 1,5-D-anhydrofructose and 14 days for those given PBS as controls.

[3] = system: HeLa (human cervical cancer cells); test: Percentage of dead cells and cell cycle by PI staining/FACS; assay type: cell-based; conditions: 1.4 mM
Method: (§1) Adhesion cancer cell lines C57 BL/6 mouse melanoma cell lines (B16 melanoma), human lung adenocarcinoma cell lines (A549), human keratinocyte derived tumor-like cell lines (HaCaT) and human cervical cancer cell lines (Hela) were cultured at 37° C. and a CO2 concentration of 5% in DMEM media having 10% FCS (fetal calf serum) and 2% penicillin/streptomycin added thereto. Floating tumor cells THP-1 (promyelocytic leukemia cell lines) were cultured at 37° C. and a CO2 concentration of 5% in an RPMI 1640 medium containing 10% FCS and 2% penicillin/streptomycin.
(§2) The cell culture media were stimulated by ascopyrone P solutions (prepared by dissolving ascopyrone P in dimethyl sulfoxide (DMSO)) of various concentrations and cultured for a predetermined time. Thereafter, cells were collected in a floating state by use of trypsin. Then, the cells were fixed by 70% ethanol at 4° C. for 30 minutes and then stained with a 50 μg/ml propidium iodine (PI) solution. After 30 minutes, DNA histograms were prepared by use of an FACS to examine cell death percentages and cell cycles.
(§3) In the examination, in addition to the B16 melanoma cells, 4 types of human cancer cell lines (THP-1: promyelocytic leukemia, HeLa: cervical cancer, A549: alveolar cell carcinoma, HaCaT: cutaneous cancer model cells) were examined for the proportion of dead cells induced by stimulation of ascopyrone P. To the cancer cell culture solutions, ascopyrone P was added to 1.4 mM, and the percentages of dead cells after 48 hours were determined.
Therefore, when ascopyrone P is given to a living body as an antitumor medicine, it is expected that it specifically exerts a cell killing effect only on tumor cells without affecting normal cells most of which are conceived in the G0/1 period of the cell cycle.

[4] = system: A549 (human alveolar cell carcinoma); test: Percentage of dead cells by PI staining/FACS; DNA fragmentation; assay type: cell-based
Method: as §1
as §2, with “After 30 minutes, DNA histograms were prepared by use of an FACS to examine cell death percentages and cell cycles.” left out
as §3

[5] = system: THP-1 (promyelocytic leukemia cells); test: Percentage of dead cells by PI staining/FACS; assay type: cell-based, human
Method: as §1
as §2, with “After 30 minutes, DNA histograms were prepared by use of an FACS to examine cell death percentages and cell cycles.” left out
as §3

[6] = system: B16 melanoma cells in C57 BL/6 mice; test: Subcutaneous B16 melanoma tumor volume and metastasis; assay type: in vivo, mouse; conditions: 25 mg/kg subcutaneously into tumor spots every other day, 3rd to 13th day
Method: Next, B16 melanoma cells (1×10^5 cells) were subcutaneously disseminated in the backs of C57 BL/6 mice, PBS and ascopyrone P were subcutaneously injected into tumor spots (using a solution of ascopyrone P dissolved in PBS in a dosage of 25 mg/kg) every other day from the 3rd day to the 13th day, and the antitumor effects were evaluated based on the volumes (long diameter×short diameter^2×0.52) of the tumors (FIG. 10). […] In general, it is said in clinical practice that an antitumor medicine with a lower tumor growing rate provides better prognosis.

[7] = system: HaCaT (human keratinocyte derived tumor-like cells); test: Percentage of dead cells by PI staining/FACS; DNA fragmentation; FCS 10% vs FCS 1%; assay type: cell-based; conditions: 1.4 mM
Method: as §1, §2, §3
It is known that although HaCaT cells have characteristics of tumor cells in the presence of 10% FCS, they have characteristics close to those of normal cells in the presence of low-concentration FCS (1% or lower). By taking advantage of this characteristic, the influence of ascopyrone P on normal cells was examined.

[8] = system: B16 melanoma (C57 BL/6 mouse melanoma cells); test: Percentage of dead cells by PI staining/FACS; assay type: cell-based; conditions: 1.4 mM, after 48 hours
Method: as §1
as §2, with “After 30 minutes, DNA histograms were prepared by use of an FACS to examine cell death percentages and cell cycles.” left out
as §3

B16 melanoma cells = test: Cell growth inhibition, number of living cells by crystal violet staining; assay type: cell-based, mouse; conditions: 0.70 mM final concentration, one week culture
Method: After B16 melanoma cells having multiplied on a 6-well plate were fixed by 2% glutaraldehyde, they were stained with 4% crystal violet, and stainable cells were determined to be living cells.
5×10^3 cells/ml of B16 melanoma cells (C57 BL/6 mouse melanoma cells) were disseminated into a 6-well plate. After the cells were attached to the bottom face (24 hours), an ascopyrone P solution (using DMSO as a solvent) was added in equal amounts to achieve a final concentration of 0 to 0.70 mM in the culture solutions. After the cells were cultured at 37° C. and a CO2 concentration of 5% for one week, the number of living cells was counted.

Compound: O=C1CO[C@H](CO)[C@@H](O)[C@@H]1O [1,5-D-anhydrofructose]
- cell adhesion by phorbol ester (remaining) [1]: about 25%
- average survival days after the tumor cells were disseminated ([2]; 200 mg/kg into the abdominal cavity every day from the 2nd day, PBS controls 14 days): 19 days

Compound: O=C1CC(CO)OC=C1O (stereo not drawn) [ascopyrone P, 2-hydroxymethyl-5-hydroxy-2,3-dihydro-4H-pyran-4-one]
- Percentage of Dead Cells (%) ([3]; after 48 hours): 8.3 ± 2.0%
- G2/M period cell population ([3]; FCS 10%, 24 hours): significant decrease
- S-period cell population ([3]; FCS 10%, 24 hours): significant increase
- cell death ([3]; FCS 10%, 48 hours): about 10%
- Percentage of Dead Cells (%) ([4]; A549, 1.4 mM, after 48 hours): 48.6 ± 3.8%
- apoptosis-specific DNA fragmentation ([4]; A549 cells): the same result was also obtained
- cell death ([5]; THP-1, 0.35 mM, within 48 hours): induced cell death
- Percentage of Dead Cells (%) ([5]; THP-1, 1.4 mM, after 48 hours): 33.3 ± 0.7%
- metastasis of tumors at dissection [6]: hardly observed
- tumor volume versus PBS ([6]; from the 7th day and later): significantly smaller tumor volume
- tumor volume versus PBS ([6]; until the 7th day): no difference
- apoptosis-specific DNA fragmentation ([7]; 48 hours, agarose gel electrophoresis): apoptosis-specific DNA fragmentation was observed
- Percentage of Dead Cells (%) ([7]; after 48 hours): 27.2 ± 3.1%
- cell death ([7]; FCS 1% (normal-cell-like)): almost no cell death was observed
- cell death ([7]; FCS 10% (tumor-like growth), within 48 hours): about 30%
- proportion of mice with 3 times or longer life time expansion than controls (PBS) ([2]; 200 mg/kg into the abdominal cavity every day from the 15th day): 40%
- average survival days ([2]; 200 mg/kg into the abdominal cavity every day from the 15th day, PBS controls 4 days): 8 days
- Percentage of Dead Cells (%) [8]: 31.9 ± 3.6%
- number of living cells (control DMSO = 100%) (B16 melanoma cells): ≤ 50%
